Data taken from paper PMC12282105 (RSC Advances, 2025).

Target: SARS-CoV-2 main protease (M^pro or 3CL^pro) (Severe acute respiratory syndrome coronavirus 2, UniProt P0DTD1)
Assay: Fluorogenic substrate assay of SARS-CoV-2 main protease
Assay type: biochemical
Details: compound 9 relative to compound 8

`O=c1cc(-c2ccc(O)cc2)oc2cc(O[C@@H]3O[C@H](CO)[C@@H](O)[C@H](O)[C@H]3O)cc(O)c12` [Compound 9, apigenin-7-O-β-D-glucopyranoside] was tested, and the “improvement in protease inhibitory activity” value was 15 fold.
